The target of one assay is T1, p-AXL (Homo sapiens, UniProt P30530).
T1 construct: expressed in transfected cells; host or cells: HEK293T
T1 sequence (P30530 26-894): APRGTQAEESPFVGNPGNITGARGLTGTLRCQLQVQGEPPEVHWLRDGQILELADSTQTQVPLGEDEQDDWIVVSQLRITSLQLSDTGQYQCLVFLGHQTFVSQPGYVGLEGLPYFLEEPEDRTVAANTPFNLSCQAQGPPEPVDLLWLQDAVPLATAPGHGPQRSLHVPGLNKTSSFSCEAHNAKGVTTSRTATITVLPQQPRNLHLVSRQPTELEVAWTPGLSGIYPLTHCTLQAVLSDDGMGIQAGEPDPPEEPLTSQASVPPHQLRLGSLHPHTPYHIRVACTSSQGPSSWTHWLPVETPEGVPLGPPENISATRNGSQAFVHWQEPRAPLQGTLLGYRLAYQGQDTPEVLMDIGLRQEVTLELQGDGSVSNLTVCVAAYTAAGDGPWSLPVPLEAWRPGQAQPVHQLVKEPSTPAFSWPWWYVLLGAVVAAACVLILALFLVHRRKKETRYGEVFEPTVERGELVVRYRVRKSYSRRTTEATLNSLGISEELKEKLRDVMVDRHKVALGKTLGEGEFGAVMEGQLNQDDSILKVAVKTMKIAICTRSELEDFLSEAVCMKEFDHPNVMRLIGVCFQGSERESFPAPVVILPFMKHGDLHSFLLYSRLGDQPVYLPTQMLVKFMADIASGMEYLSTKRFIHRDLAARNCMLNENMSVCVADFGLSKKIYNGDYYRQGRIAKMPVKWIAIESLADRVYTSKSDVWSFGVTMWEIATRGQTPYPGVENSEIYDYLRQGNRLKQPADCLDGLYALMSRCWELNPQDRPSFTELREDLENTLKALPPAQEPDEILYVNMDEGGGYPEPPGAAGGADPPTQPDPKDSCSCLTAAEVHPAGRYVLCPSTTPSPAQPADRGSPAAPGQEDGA
The assay can be described thus: Axl phosphorylation inhibition ELISA in HEK293T cells transfected with NanoLuc-tagged AXL. The assay is classed as cell-based. Particulars: 1 h compound incubation, media (OptiMEM). The method in brief: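 HEK293T cells transiently transfected one day earlier with NanoLuc-tagged AXL were exposed to 22-point 2-fold compound dilutions for 1 h at 37° C (70,000 cells/well), then lysed. Lysates captured on anti-phospho-tyrosine coated plates for 2 h; bound p-AXL read by NanoLuc luminescence; IC50 from 4-parameter logistic fit.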
Background: An ELISA detects its analyte on a solid surface through an enzyme-linked reagent.

The next assay addresses T2, Axl (Homo sapiens, UniProt P30530).
T2 sequence (P30530 26-894): T1 sequence (P30530 26-894)
The assay can be described thus: Biochemical potency, HTRF KinEASE-TK kinase assay. Set-up: purchased Invitrogen. Particulars: 5 nM AXL, 700 μM ATP. The method in brief: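 Enzyme (AXL 5 nM; TYRO3 or MER 1 nM final) was preincubated with compound for 1 h at RT, then reacted for 2 h at RT with 800 nM biotinylated TK substrate and 700 µM ATP in HEPES pH 7.4, MgCl2, DTT, BSA, 1% DMSO. Percent activity came from the HTRF 665/620 ratio.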
For orientation: Time-resolved FRET reads energy transfer from a long-lived donor to a nearby acceptor.

For the next assay, the target named is T3, recombinant human MER (Homo sapiens, UniProt Q12866).
T3 construct: purchased Invitrogen
T3 sequence (Q12866 21-999): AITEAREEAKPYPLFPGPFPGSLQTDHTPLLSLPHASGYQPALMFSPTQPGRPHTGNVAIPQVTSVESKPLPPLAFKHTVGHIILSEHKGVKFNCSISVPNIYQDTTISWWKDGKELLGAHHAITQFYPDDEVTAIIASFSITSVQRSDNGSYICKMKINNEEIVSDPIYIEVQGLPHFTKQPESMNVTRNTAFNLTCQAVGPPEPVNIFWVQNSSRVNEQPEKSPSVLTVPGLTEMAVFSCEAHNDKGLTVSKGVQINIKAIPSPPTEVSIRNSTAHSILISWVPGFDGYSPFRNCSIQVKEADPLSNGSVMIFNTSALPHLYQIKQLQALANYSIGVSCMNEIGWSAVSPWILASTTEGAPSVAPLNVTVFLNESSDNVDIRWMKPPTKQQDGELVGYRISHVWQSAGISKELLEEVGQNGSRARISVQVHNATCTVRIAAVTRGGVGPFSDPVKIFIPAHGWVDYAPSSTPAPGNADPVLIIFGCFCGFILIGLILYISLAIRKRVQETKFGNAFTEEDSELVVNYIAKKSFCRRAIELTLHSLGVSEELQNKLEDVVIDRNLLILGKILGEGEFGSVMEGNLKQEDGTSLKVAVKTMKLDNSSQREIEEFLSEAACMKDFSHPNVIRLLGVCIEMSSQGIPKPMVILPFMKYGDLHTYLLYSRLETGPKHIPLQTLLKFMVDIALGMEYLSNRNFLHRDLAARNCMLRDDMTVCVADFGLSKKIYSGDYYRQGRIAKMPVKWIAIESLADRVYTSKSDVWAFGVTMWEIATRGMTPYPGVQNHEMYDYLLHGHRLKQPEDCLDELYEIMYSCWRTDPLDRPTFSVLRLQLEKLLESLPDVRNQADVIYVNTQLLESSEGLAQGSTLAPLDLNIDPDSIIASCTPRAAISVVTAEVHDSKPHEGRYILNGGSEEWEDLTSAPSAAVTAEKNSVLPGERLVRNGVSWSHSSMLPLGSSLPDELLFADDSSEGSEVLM
The assay can be described thus: Biochemical potency, HTRF KinEASE-TK kinase assay. Particulars: 1 nM MER, 700 μM ATP. The procedure:
Measurement of Biochemical Compound Potency of Axl Inhibitors
Purified recombinant human AXL, TYRO3 and MER proteins were purchased from Invitrogen™. 10 nM AXL, 2 nM TYRO3 or MER were incubated with varying concentrations of compounds in 50 mM HEPES, pH 7.4, 10 mM MgCl2, 0.01% BSA, 1 mM DTT and 2% DMSO in a total volume of 20 μl in a 384-well microplate (Corning™ #3640) at RT for 1 h. The AXL, TYRO3 and MER enzymatic reaction was initiated by transferring 10 μl of enzyme and compound mixture into 10 μl of 1.6 μM TK Substrate-biotin (HTRF® KinEASE-TK kit, Cisbio) and 1400 μM ATP pre-incubated in 50 mM HEPES, pH 7.4, 10 mM MgCl2, 0.01% BSA, 1 mM DTT in a 384-well microplate (Corning™ #3640) at RT, giving the final reaction conditions: 5 nM AXL, 1 nM TYRO3 or MER, 800 nM TK Substrate-biotin and 700 μM ATP in 50 mM HEPES, pH 7.4, 10 mM MgCl2, 0.01% BSA, 1 mM DTT and 1% DMSO with varying concentrations of compounds. Following 2 h incubation at RT, the AXL, TYRO3 and MER enzymatic reaction was stopped by transfer of 10 μl of reaction into 10 μl of detection mix (400 nM Streptavidin-XL665, 200-fold dilution TK Antibody-Cryptate and detection buffer, HTRF® KinEASE-TK kit, Cisbio) in a white 384-well microplate (Perkin Elmer, OptiPlate 384). After 1 h incubation at RT, the plate was put into a plate reader (Evision) to read at 665/620 nm (acceptor/donor) for HTRF. The value of the DMSO blank (MIN inhibition=100% activity) was used as a negative control. The positive control was established by adding 5 μl of enzyme and DMSO mixture into 10 μl of detection mix followed by addition of 5 μl of TK Substrate-biotin and ATP mixture (MAX inhibition=0% activity). To calculate the percent activity, Equation 1 was used. Ratio665/620 is the value at a given compound concentration: […]

Seven compounds from US12195482B1 (Arcus Biosciences, Inc., priority 2022, dated 2025) can be followed below.

The structures appear in SMILES notation.

Broadly, the IC50 is the point on the concentration scale where inhibition reaches its midpoint. With `Cc1ccc(C)c(-c2ccc(-c3n[nH]c4ncc(-c5ccc6c(c5)CC[C@@H](N5C7COC[C@H]5C7)CC6)cc34)nc2)n1` [Example 9, 3,6-Dimethyl-6′-{5-[(7S)-7-[(1R)-3-oxa-6-azabicyclo[3.1.1]heptan-6-yl]-6,7,8,9-tetrahydro-5H-benzo[7]annulen-2-yl]-1H-pyrazolo[3,4-b]pyridin-3-yl}-2,3′-bipyridine], the IC50 is under 100 nM against p-AXL, under 100 nM on Axl and 100 to 1000 nM at recombinant human MER.

Turning to `Cc1cccnc1-c1ccc(-c2n[nH]c3ncc(-c4ccc5c(c4)CC[C@@H](N4C6COCC4C6)CC5)cc23)nn1` [Example 17, 6-[(7S)-3-[3-[6-(3-Methylpyridin-2-yl)pyridazin-3-yl]-1H-pyrazolo[3,4-b]pyridin-5-yl]-6,7,8,9-tetrahydro-5H-benzo[7]annulen-7-yl]-3-oxa-6-azabicyclo[3.1.1]heptane], the IC50 is under 100 nM on p-AXL, under 100 nM against Axl and 100 to 1000 nM on recombinant human MER.

As for `Cc1nccnc1-c1ccc(-c2n[nH]c3ncc(-c4ccc5c(c4)CC[C@@H](N4C6COCC4C6)CC5)cc23)nc1` [Example 55, 6-[(7S)-2-{3-[5-(3-Methylpyrazin-2-yl)pyridin-2-yl]-1H-pyrazolo[3,4-b]pyridin-5-yl}-6,7,8,9-tetrahydro-5H-benzo[7]annulen-7-yl]-3-oxa-6-azabicyclo[3.1.1]heptane], the IC50 at p-AXL was under 100 nM; against Axl, under 100 nM; on recombinant human MER it was over 1000 nM.

Regarding `Cc1cccnc1-n1cc(-c2n[nH]c3ncc(-c4ccc5c(c4)CC[C@@H](N4C6COCC4C6)CC5)cc23)cn1` [Example 79, 6-[(7S)-2-{3-[1-(3-Methylpyridin-2-yl)-1H-pyrazol-4-yl]-1H-pyrazolo[3,4-b]pyridin-5-yl}-6,7,8,9-tetrahydro-5H-benzo[7]annulen-7-yl]-3-oxa-6-azabicyclo[3.1.1]heptane], the results for the IC50 against p-AXL, on Axl and on recombinant human MER were under 100 nM, under 100 nM and 100 to 1000 nM, respectively.

With `O=C1OCCN1c1nccnc1-c1ccc(-c2n[nH]c3ncc(-c4ccc5c(c4)CC[C@@H](N4C6COCC4C6)CC5)cc23)cc1` [Example 126, 3-[3-(4-{5-[(7S)-7-{3-Oxa-6-azabicyclo[3.1.1]heptan-6-yl}-6,7,8,9-tetrahydro-5H-benzo[7]annulen-2-yl]-1H-pyrazolo[3,4-b]pyridin-3-yl}phenyl)pyrazin-2-yl]-1,3-oxazolidin-2-one], the IC50 against p-AXL was 100 to 1000 nM; against Axl it was under 100 nM; at recombinant human MER it was 100 to 1000 nM.

For `Cc1cccc(C#N)c1-c1ccc(-c2c[nH]c3ncc(-c4ccc5c(c4)CC[C@@H](N4C6COCC4C6)CC5)cc23)nc1` [Example 197, 3-Methyl-2-(6-{5-[(7S)-7-{3-oxa-6-azabicyclo[3.1.1]heptan-6-yl}-6,7,8,9-tetrahydro-5H-benzo[7]annulen-2-yl]-1H-pyrrolo[2,3-b]pyridin-3-yl}pyridin-3-yl)benzonitrile], the figures for the IC50 at p-AXL and against Axl were 100 to 1000 nM and under 100 nM, respectively.

Consider `Cc1ccc(N2CCCC2=O)c(-c2ccc(-c3n[nH]c4ncc(-c5ccc6c(c5)CC[C@@H](N5C7COCC5C7)CC6)cc34)cc2)n1` [Example 198, 1-[6-Methyl-2-(4-{5-[(7S)-7-{3-oxa-6-azabicyclo[3.1.1]heptan-6-yl}-6,7,8,9-tetrahydro-5H-benzo[7]annulen-2-yl]-1H-pyrazolo[3,4-b]pyridin-3-yl}phenyl)pyridin-3-yl]pyrrolidin-2-one], for which the IC50 against p-AXL was 100 to 1000 nM; against Axl, under 100 nM.
